Columns and labels:
Format in all cases: in vivo
[1] = tested on: radiation-induced emesis; experiment: Radiation-induced (X-irradiation) emesis in the conscious ferret; conditions: for effect on radiation-induced emesis (in words): s.c. immediately after X-irradiation, conscious ferret; for anti-emetic effect with DPCPX, animals affected (in words): two animals
Text: The effects of a number of A1 agonists (including N-(3-fluoro4-hydroxy-phenyl)-5′-O-methyl-adenosine and N-(4-hydroxy-phenyl)-5′-O-methyl-adenosine) and an antagonist, 1,3-dipropyl-8-cyclopentylxanthine (DPCPX), were investigated for anti-emetic action against radiaton-induced emesis in the conscious ferret. In addition DPCPX was used in an attempt to block the anti- emetic effects of the partial agonist, N-(3-fluoro-4hydroxy-phenyl)-5′-O-methyl-adenosine, the structure of which is indicated below. [drawing 4]
For all the experiments. adult male ferrets, body weight range 1-1.5 kg, were used. Emesis was induced by X-irradiation, morphine and cisplatin.
The ferrets were weighed on the day before the experiment. On the day of the experiment each ferret received 2Gy (200 Rad) whole body X-irradiation, administered over a 5 minute period. The A1 receptor agonists, partial agonists or antagonist were administered via the subcutaneous route immediatelv after X-irradiation (i.e. approximately 25 minutes before the onset of emesis). When investigating the effects of the A1 receptor antagonist, DPCPX, on the partial agonist N-(3-fluoro4-hydroxy-phenyl)-5′-O-methyl-adenosine, either both compounds were administered simultaneously immediately after X-irradiation, or the DPCPX was given as a 15 minute pre-treatment.

[2] = tested on: cisplatin-induced emesis; experiment: Cisplatin-induced emesis in the conscious ferret; conditions: cisplatin 200 mg m-2 i.p., 1 mg kg-1 s.c. after first emetic episode, n=2
Description: For all the experiments. adult male ferrets, body weight range 1-1.5 kg, were used. Emesis was induced by X-irradiation, morphine and cisplatin. The ferrets were weighted and measured for the calculation of body surface area on the day before the experiment. On the day of the experiment each ferret received an intraperitoneal dose of cisplatin (200 mg m^−2).

[3] = tested on: morphine-induced emesis; experiment: Morphine-induced emesis in the conscious ferret; conditions: morphine 0.5 mg kg-1 s.c., 1 mg kg-1 s.c. 15 minutes before morphine, n=2

SMILES | effect on radiation-induced emesis (in words) [1] | % inhibition of retching ([1]; 2Gy whole body X-irradiation, 1.0 mg kg-1 s.c. immediately after irradiation, observed 2 hours, n=2) [%] | anti-emetic effect with DPCPX, animals affected (in words) ([1]; DPCPX 3 mg kg-1 s.c., 15 minute pre-treatment) | anti-emetic effect with DPCPX, animals affected (in words) ([1]; DPCPX 1 mgkg-1 s.c. administered simultaneously) | reversal of the anti-emetic effect by the A1 receptor antagonist DPCPX (in words) ([1]; X-irradiation, addition of DPCPX) | % inhibition of retching ([2]; 1h) [%] | % inhibition of retching ([2]; 2h) [%] | % inhibition of retching ([2]; 7h) [%] | % inhibition of retching ([3]; 1h) [%] | % inhibition of retching ([3]; 2h) [%]
COC[C@H]1O[C@@H](n2cnc3c(Nc4ccc(O)cc4)ncnc32)[C@H](O)[C@@H]1O [N-(4-hydroxyphenyl)-5′-O-methyl-adenosine] | completely inhibited emesis |  |  |  |  |  |  |  |  | 
COC[C@H]1O[C@@H](n2cnc3c(Nc4ccc(O)c(F)c4)ncnc32)[C@H](O)[C@@H]1O [N-(3-fluoro-4-hydroxyphenyl)-5′-O-methyl-adenosine] | completely inhibited emesis | 100 | anti-emetic effect in both animals was reduced | anti-emetic effect in only one of the two animals tested was reduced | partially reversed | 100 | 67 | 43 | 100 | 100

Reference: patent US20040167092A1, “Medicaments” (priority 2001, published 2004)
